Results: US9636311B2, “N,N′-di-1 naphthylguanidine HCl (NAGH) and N,N′-di-p-nitrophenylguanidine HCl (NAD) treatment for stroke at delayed timepoints” (University of South Florida, priority 2012, dated 2017)
“Also recorded” adds a separate entry of the source. Like-named read-outs stand apart in the source and are kept apart here.

Assays:
rats following MCAO [1] = assay: Brain infarction quantification (Nissl thionin) after MCAO; format: in vivo, rat; conditions: s.c. daily for 3 days from 24 h post-MCAO (NAGH 0.86, NAD 2.8, Bromo-DTG 8.2, Chloro-DTG 8.5 mg/kg/day); 30 days post MCAO
Description: All animal procedures were performed according to the University of South Florida guidelines for the care and use of animals and protocols were reviewed and approved by the Institutional Animal Care and Use Committee and adhered to the NIH guidelines for the care and use of animals. Adult male Sprague Dawley rats (Harlan) weighing about 250-300 g at the time of surgery were used for the study. All animals were housed two per cage in a temperature controlled room, under a 12 hour light-dark cycle, and given access to water and food ad libitum. Animals were monitored daily for wellness and biweekly for weight loss. For the NAGH studies, a total of 84 animals were randomly assigned to 2 groups: MCAO only (n=42) and rat treated with NAGH (n=42) beginning 24 hour after MCAO.
(§1) MCAO surgeries were performed as described elsewhere (Vendrame M, Cassady C J, Newcomb J, Butler T, Pennypacker K R, Zigova T, et al. Stroke. 2004; 35:2390-2395). Briefly, rats were anesthetized with isoflurane, and the right common carotid and external carotid arteries were exposed using blunt dissection techniques. The vagus nerve was separated from common carotid artery and the external carotid artery was ligated proximally, and transected near the bifurcation. An embolus 40 mm in length (4.0 siliconized monofilament) was inserted into the external carotid artery and fed distally into the origin of the middle cerebral artery (˜25 mm from insertion) through the internal carotid artery. Blood samples were taken and analyzed using an i-STAT handheld analyzer for hemoglobin, hematocrit, ionized calcium, glucose, sodium, potassium, pH, pCO2, HCO3, TCO2, base excess, pO2, and O2. Cerebral blood flow was recorded using a Laser Doppler Monitor (Moor Instruments) to verify occlusion. Afterwards, the embolus was ligated permanently into the vessel and the neck incision was closed. Animals were treated with Ketoprofen IM (10 mg/kg) for three days post-surgery.
(§2) For the NAGH studies, vehicle or NAGH were prepared fresh each day. Daily subcutaneous injections (s.c) were administered beginning about 24 hours after MCAO and continued daily to about 72 hours post-surgery (FIG. 1). Animals received a total of 3 injections. A total of 84 animals were randomly assigned into 2 groups: Rats treated with vehicle (40% DMSO in sterile saline, n=42), or rats treated with 0.86 mg/kg NAGH (n=42).
For the studies with other compounds based on the structure of DTG, twenty-four hours after MCAO, the rats began a sigma agonist treatment regimen. Vehicle or drug was prepared fresh each day. […]
Infarct size was determined by Nissl thionin staining. […]

[2] = tested on: permanent middle cerebral artery occlusion (MCAO); conditions: administered beginning 24 hours after permanent MCAO; cited from earlier work
microglial cells [3] = assay: Inhibition of microglial migration evoked by ATP; format: cell-based
Description: (§3) FIG. 8 is a series of images confirming NAGH acts as a sigma receptor agonist. A) Concentration-response relationship for NAGH (closed circles) and DTG (open circles) inhibition of microglial migration evoked by 100 μM ATP. […] Points represent mean (±SEM) and for all points, n>9. B) Bar graph of the mean (±SEM) number of microglial cells migrating in response to 100 μM ATP when ATP was added alone (DMEM) or in the presence of 100 μM NAGH. Microglia were further exposed to no σ antagonist (Control), or the σ-1 antagonist, BD-1047 (10 μM, BD-1047), or the σ-2 antagonist, rimcazole (10 μM, Rimcazole). Asterisks denote significant difference between DMEM and NAGH within Control, BD-1047 and Rimcazole groups, respectively. Pound symbols indicate significant difference between Control, BD-1047 and Rimcazole within DMEM and NAGH groups, respectively. P<0.05 and n=24 for all groups.
as §3, with “8A illustrates the concentration-response” for “8 is a series of images confirming NAGH acts as a sigma receptor agonist. A) Concentration-response”, “FIG. 8B depicts a bar” for “B) Bar”

microglial cells [4] = conditions: 24 hours after in vitro ischemia; cited from earlier work
rats following MCAO [5] = assay: Battery of behavioral tests after MCAO (corner, grip, rotorod, step, cylinder); format: in vivo, rat; conditions: NAD 2.8 mg/kg s.c. x3; 30 days after MCAO
Description: After surgery, animals were tested was performed once before surgery and 30 days post-surgery for motor coordination and behavior. All behavioral data are reported as mean+sem.
Rotorod test, which measures motor coordination, was conducted using Omni-rotor Rotorod (Omnitech, Inc). Animals were trained on the accelerating rotorod apparatus for 3 consecutive days before times were collected. Animals were placed on the revolving rod and instrument was set to accelerate to a maximum speed of 40 rpm over 180 seconds. Latency to fall (in seconds) was recorded. This test was performed in triplicate once per day for 3 days.
(§4) Rats were held tightly with one forelimb placed on a hard flat table top and then pulled for a length of 1 meter in the direction of the placed forelimb at constant velocity. The test was repeated with the opposite forelimb. This was repeated three times for each forelimb and the percent of contralateral forelimb paw was obtained. The bias was standardized as the absolute number of steps with the contralateral paw minus 100.
The animals were placed in a transparent cylinder about 20 cm in diameter and 30 cm in height with an open top. The number times each paw was placed on the sides of the cylinder was counted a5 minute period. The test was videotaped and a mirror was placed behind the cylinder allowing the experimenter to see the placement of paws when the animal was facing away from the camera.
A 30 degree angle was formed using the edges of two plexiglass boards. The animals were placed halfway into the corner facing the corner and the total number of left and right turns was recorded. A total of 10 trials were conducted and videotaped. A non-lesioned animal turned randomly toward the left or right, while a lesioned animal preferentially turned toward the non-impaired (left) side. Results were reported as the percentage of ipsilateral (injury site, right side) versus contralateral turns.
Motor deficits were assessed using a grip strength meter (Bioseb, # BIO-GS3). […] Grip strength was recorded in Newtons (N). […]

rats following MCAO [6] = assay: Spontaneous activity (automated activity monitor) after MCAO; format: in vivo, rat; conditions: NAD 2.8 mg/kg s.c. x3; 30 days after MCAO; day and night
Description: as §1, §2
(§5) For NAD testing, a total of 32 animals were randomly assigned into 2 groups: Vehicle (n=16), and rat treated with 2.8 mg/kg NAD (n=16). Vehicle consisted of 40% DMSO in sterile saline.
Spontaneous Activity was measured during both the day (1 hr) and night (12 hrs) using an automated activity monitor (VersaMax, Accuscan Instruments, Inc). Spontaneous Activity was measured prior to stroke to establish the normal baseline for each individual animal as well as 1 month after the MCAO. The animals were placed in a Plexiglas box and allowed to roam freely. There is a three dimensional infrared array in this box and when a beam is broken, activity is recorded. A total of sixteen parameters were measured including: Vertical movement, Horizontal movement, and Stereotypic activity were selected for analysis: Horizontal activity (HA), Total distance travelled (TD), Number of movements (MVN), Movement time (MVT), Vertical activity (VA), Number of vertical movements (VMN), vertical time (VT), Stereotype counts (SC), Number of Stereotypy (SN), Stereotypy time (ST), Clockwise rotation (CR), counterclockwise rotation (CCR), Margin distance (MD), Marginal time (MT), Center distance (CD), and Center time (CT). The data are presented as mean+SEM of percent of baseline behavior.

rats following MCAO [7] = assay: Step test after MCAO; format: in vivo, rat; conditions: NAD 2.8 mg/kg s.c. x3; 30 days post-stroke; p<0.05
Description: as §5, §4

rats following MCAO [8] = assay: Grip strength test after MCAO; format: in vivo, rat; conditions: NAD 2.8 mg/kg s.c. x3; 30 days after MCAO; p=0.0007
Description: as §5
Motor deficits were assessed using a grip strength meter (Bioseb, # BIO-GS3). The animals were held so the front left paw could firmly grasp the bar of the strength meter, and then pulled straight backward until its front paw released its grasp. Grip strength was recorded in Newtons (N). This test was repeated 3 times.

stroke = conditions: Ruscher, Shamloo et al. 2011; cited from earlier work
[9] = migration evoked by 100 μM ATP, two-component Langmuir-Hill fit

Cl.N=C(Nc1ccc(Br)cc1)Nc1ccc(Br)cc1 [Bromo-DTG, N,N′-di-p-Bromophenylguanidine hydrochloride]
Infarct volume vs vehicle (rats following MCAO [1]): did not show significant effects over vehicle

Cl.N=C(Nc1cccc(Cl)c1)Nc1cccc(Cl)c1 [Chloro-DTG, N,N′-di-m-Chlorophenylguanidine hydrochloride]
Infarct volume vs vehicle (rats following MCAO [1]): did not show significant effects over vehicle

Cc1ccccc1NC(=N)Nc1ccccc1C [DTG, 1,3-di-o-tolylguanidine, reference compound]
Infarct size 96 hrs post-MCAO [2]: decreased infarct volume; also recorded: decreased infarct size | Long-term functional recovery [2]: failed to improve long-term functional recovery | Emax, high affinity component (microglial cells [3]; [9]): 0.38 | Emax, low affinity component (microglial cells [3]; [9]): 0.62 | Hill coefficient, high affinity component (microglial cells [3]; [9]): 0.59 | Hill coefficient, low affinity component (microglial cells [3]; [9]): 1.7 | IC50 (microglial cells [3]; migration evoked by 100 μM ATP, two-component Langmuir-Hill fit, read-out: IC50, high affinity component): 0.76 µM | IC50 (microglial cells [3]; read-out: IC50, low affinity component): 80 µM | Microglial cell death (microglial cells [4]): significantly reduced microglial cell death

Cl.N=C(Nc1ccc([N+](=O)[O-])cc1)Nc1ccc([N+](=O)[O-])cc1 [NAD, N,N′-di-p-Nitrophenylguanidine hydrochloride]
Overall behavioral data vs vehicle, all tests except Grip Strength and Step test (rats following MCAO [5]): no significant difference | Infarct volume vs vehicle (rats following MCAO [1]): not significant | Activity vs MCAO-only animals (rats following MCAO [6]): less activity than MCAO-only animals | Step test, steps with impaired paw compared to unimpaired paw (rats following MCAO [7]): 100.3 ± 5.6% | Average grip strength vs non-treated rats (rats following MCAO [8]): significantly higher

COc1ccc(CCN2CCN(CCCc3ccccc3)CC2)cc1OC [SA4503]
Infarct size (stroke): without decreasing infarct size | Sensorimotor function (stroke): improved sensorimotor function
